Data taken from PubChem BioAssay AID2305 (GlaxoSmithKline (GSK), 2010).

Tested on: P. falciparum 3D7 growth, pLDH absorbance
Experiment: blood-stage malaria parasite growth potency – strain 3D7, dose response (AID 2305)

| Structure (SMILES) | IC50 |
| --- | --- |
| CN1CCN(C(C(=O)NCc2cc(Cl)cc(Cl)c2)c2ccc(Nc3cccc(C(F)(F)F)c3)cc2)CC1 (centres undefined) | 1120 nM |
| Cc1cccc2[nH]c(-c3cccc(-c4cccc(NC(=O)CNc5ccc(C(N)=O)cc5)c4)c3)nc12 | 280 nM |
| Cc1ccc(S(C)(=O)=O)cc1/C=C/C(=O)O | 870 nM |
| O=C(NCC1CCC(C(=O)NCCc2ccc(Cl)c(Cl)c2)CC1)c1ccc(O)c(-c2ccc(Cl)c(Cl)c2)c1 (centres undefined) | 890 nM |
| O=S1c2ccccc2Sc2ccccc21 | 170 nM |
| CCN(CCCN1CCCCC1)c1cc(C)nc(Nc2ccc(C(F)(F)F)cc2)n1 | 370 nM |
| CC(Oc1c(C2CCN(CCCCNC(=O)c3ccc(-c4ccc(C#N)cc4)cc3)CC2)ccc2c1CCCC2)C(N)=O (centres undefined) | 680 nM |
| Cc1cc(C2NC(=O)c3ccccc3N2)c(C)n1-c1ccc2c(c1)OCO2 (centres undefined) | 730 nM |
| Nc1nc(N)c2c(ccc3nn(Cc4ccccc4)cc32)n1 | 210 nM |
| COc1ccc2nccc([C@@H](O)CN3CCC(NC(=O)C(c4cc5ccccc5o4)N4CCC(Cc5ccccc5)CC4)CC3)c2c1 (some centres undefined) | 250 nM |
| CC(=O)c1c(Nc2c(C)cc(C)cc2C)oc(C)cc1=O | 480 nM |
| Cc1cc(NCC2CCN(CC3CCCCC3)C2)nc(Nc2ccc(Cl)cc2)n1 (centres undefined) | 740 nM |
| CCN1CCC(N(Cc2ccc(-c3ccc(C(F)(F)F)cc3)cc2)C(=O)Cn2c(CCc3cccc(F)c3F)cc(=O)c3c2CCCC3)CC1 | 760 nM |
| Cc1cc(C2CCN(CCCCNC(=O)c3ccc(-c4ccc(C(F)(F)F)cc4)cc3)CC2)c(C)cc1OCCOC1CCCCO1 (centres undefined) | 790 nM |
| O=C(Nc1cccc(-c2ccc(CN3CCCC3)cc2)c1)c1ccc(Cl)cc1 | 430 nM |
| COCCCNC(=O)[C@H]1CNCCN1C(=O)c1ccccc1 | 800 nM |
| O=C(c1cc(OC(F)(F)F)ccc1O)N1CCN(c2ccccc2)CC1 | 1050 nM |
| COc1ccc(NC(=O)CCNc2cc(C)nc(NCCOc3ccccc3)n2)cc1 | 750 nM |
| COc1cccc2cc(C(=O)N[C@@H](CC(C)C)C(=O)N[C@H](/C=N/N3C(=O)CN(Cc4ccccc4)C3=O)CCc3ccccc3)oc12 | 620 nM |
| Oc1cccc(-c2nc3ccc(C4=N[C@@H]5CCCC[C@H]5N4)cc3[nH]2)c1 | 530 nM |
| Cc1nnc2c(NC(=O)NC3CCCC3)cc3cc(-c4ccc(CN5CCN(C)CC5)cc4)ccc3n12 | 1020 nM |
| Cc1cc(C2CCN(CCCCNC(=O)c3ccc(-c4ccc(C(F)(F)F)cc4)cc3)CC2)c(C)cc1OCCO | 880 nM |
| Cc1cccc(C(=O)Nc2ccnc(N(C)C3CCN(CC(C)C)CC3)c2)c1 | 870 nM |
| CCn1c(-c2nonc2N)nc2c(-c3ccccc3)ncc(OCCCNCCCN3CCOCC3)c21 | 670 nM |
| Cc1[nH]c(C)c(Cc2ccc(Oc3ccc(OC(F)(F)F)cc3)cc2)c(=O)c1Br | 690 nM |

| Structure (SMILES) | IC50 |
| --- | --- |
| CCN(CCNC(=O)Cn1c(C)cc2cc([N+](=O)[O-])ccc21)c1cccc(C)c1 | 1010 nM |
| Cc1ccc2nc(-c3cc(-c4ccc(OCc5ccccc5)cc4)cnc3N)[nH]c2c1 | 1680 nM |
| Nc1nccc2ccc(-c3cccc(O)c3)cc12 | 640 nM |
| O=S(=O)(c1ccc2ccccc2c1)N1CCCN(Cc2ccc(OCCCN3CCCCC3)cc2)CC1 | 1100 nM |
| N=C(N)c1cccc(-c2cc(-c3cccc(C(=N)N)c3)on2)c1 | 90 nM |
| CCc1cn2c3c(cc(C(=O)N[C@@H](Cc4ccccc4)[C@H](O)CNC4CC4)cc13)N(CC)S(=O)(=O)CC2 | 110 nM |
| CCc1c(CCNCCc2cccc(CCNCCc3ccc(OC)c(OC)c3CC)c2)ccc(OC)c1OC | 360 nM |
| Nc1ccc(-c2csc(Nc3ccncc3)n2)cc1 | 940 nM |
| c1csc(-c2nc(NCC3CCCO3)ncc2-c2ccsc2)n1 (centres undefined) | 490 nM |
| O=C(NCCCCN1CCC(c2ccc(Br)cc2)CC1)c1ccc(NC(=O)c2ccc(Cl)cc2)cc1 | 710 nM |
| Clc1cc(Nc2ncnc3cc(C#C[C@H]4CCCN4)sc23)cc2[nH]c(Cc3ccccc3)nc12 | 850 nM |
| CN(C)c1ccc(-c2ccc(C(=O)NC3CCN(Cc4cccc(C(F)(F)F)c4)CC3)s2)cc1 | 990 nM |
| CCC[C@@H]([C@@H](CC1CCC(C)CC1)C(=O)N[C@@H](CCCNc1ncccn1)C(=O)Nc1nccs1)N(O)C=O (some centres undefined) | 190 nM |
| O=C(/C=C/c1c(Cl)cccc1Cl)NC1CCC(CN2CCC(c3c[nH]c4ccncc34)CC2)CC1 (centres undefined) | 160 nM |
| CN1CCCN(Cc2cccc(-c3ccc(NC(=O)c4ccc(Cl)cc4)cc3)c2)CC1 | 720 nM |
| O=C(Nc1ccc(Cl)c(Cl)c1)Nc1ccc(F)c([N+](=O)[O-])c1 | 700 nM |
| NC(N)=NCCN(Cc1ccccc1)c1ccccc1 | 350 nM |
| CCN(CC)C(=S)N=Nc1c(O)[nH]c2c(C)cccc12 | 860 nM |
| Cc1cc(F)ccc1N(c1nc(-c2cc(Cl)ccc2Cl)cs1)C1CCNC1 (centres undefined) | 1010 nM |
| CC(C)C(C)(C#N)NC(=O)CSc1nc2ccc([N+](=O)[O-])cc2s1 (centres undefined) | 1030 nM |
| CCCCc1cc(NC2CCN(C)CC2)nc(Nc2ccccc2)n1 | 660 nM |
| CC=CC(=O)N1CCN(c2nccc(-c3ccc(C(C)(C)C)cc3)n2)CC1 | 1080 nM |
| CC(=O)Nc1ccc(CN(C)C2CCN(c3cc(NC(=O)c4cccc(C)c4)ccn3)CC2)cc1 | 900 nM |
| COc1ccc(C2CC(=O)C3=C(C2)NC(C)=C(C(=O)OC2CCCC2)C3c2cccc(O)c2)cc1 (centres undefined) | 1010 nM |
